We go through two compounds from paper PMC4413193, “3-[4-(1H-Indol-3-yl)-1,3-thiazol-2-yl]-1H-pyrrolo[2,3-b]pyridines, Nortopsentin Analogues with Antiproliferative Activity” (Marine Drugs, 2015).

The structures appear in SMILES notation.

A short description of this data set: Solubility noted during NMR characterisation. The class given is physicochemical. To be noted: NMR solvents (DMSO-d6 or CDCl3). How it is done:
All melting points were taken on a Büchi-Tottoly capillary apparatus. IR spectra were determined in bromoform with a Shimadzu FT/IR 8400S spectrophotometer. ^1H and ^13C NMR spectra were measured at 200 and 50.0 MHz, respectively, in dimethylsulfoxide (DMSO)-d6 or CDCl3 solution, using a Bruker Avance II series 200 MHz spectrometer. […] Column chromatography was performed with Merk silica gel 230–400 mesh ASTM or with Büchi Sepacor chromatography module (prepacked cartridge system). Elemental analyses (C, H, N) were within ±0.4% of theoretical values and were performed with a VARIO EL III elemental analyzer. Purity of all the tested compounds was greater than 98%, determined by HPLC as described below.

Consider `Cn1cc(-c2csc(-c3cn(C)c4ncccc34)n2)c2cc(F)ccc21` [Compound 3b, 3-[4-(5-Fluoro-1-methyl-1H-indol-3-yl)-1,3-thiazol-2-yl]-1-methyl-1H-pyrrolo[2,3-b]pyridine], for which the solubility entry is listed as “poor solubility”.

Regarding `Cn1cc(-c2csc(-c3c[nH]c4ncccc34)n2)c2cc(F)ccc21` [Compound 3a, 3-[4-(5-Fluoro-1-methyl-1H-indol-3-yl)-1,3-thiazol-2-yl]-1H-pyrrolo[2,3-b]pyridine], the solubility entry is on record as “poor solubility”.
